Entries after “also recorded” stand apart in the source; their conditions may differ. Each block holds one molecule with its values, some of them ahead of it.
Columns and labels:
[1] = biological target: HDAC2 (Homo sapiens (Human), UniProt Q92769); assay: HDAC inhibition assay; format: biochemical
Text: (§1) All histone deacetylases were purchased from BPS Bioscience. […] All the other reagents were purchased from Sigma-Aldrich.

[2] = tested on: histone deacetylases; assay: Rodent PET/CT imaging with [11C]CN133; format: in vivo, rats (Sprague Dawley); details: for [11C]CN133 uptake in peripheral organs/regions of rats after treatment: peripheral organs (heart wall, kidney cortex, spleen); for blocking of [11C]CN133 uptake in rat brain after pretreatment: whole brain, 5-minute pretreatment
Experimental: Male Sprague-Dawley rats were utilized in pairs, anesthetized with inhalational isoflurane (Forane) at 3% in a carrier of 2 L/min medical oxygen and maintained at 2% isoflurane for the duration of the scan. The rats were arranged head-to-head in a Triumph Trimodality PET/CT/SPECT scanner (Gamma Medica, Northridge, Calif., USA). Rats were injected standard references or vehicle via a lateral tail vein catheterization at the start of PET acquisition. Dynamic PET acquisition lasted for 60 minutes and was followed by computed tomography (CT) for anatomic coregistration. PET data were reconstructed using a 3D-MLEM method resulting in a full width at half-maximum resolution of 1 mm. Reconstructed images were exported from the scanner in DICOM format along with an anatomic CT for rodent studies. These files were imported to PMOD (PMOD Technologies, Ltd.) and manually coregistered using six degrees of freedom.
(§2) Volumes of interest (VOIs) were drawn manually as spheres in brain regions guided by high resolution CT structural images and summed PET data, with a radius no less than 1 mm to minimize partial volume effects. Time-activity curves (TACs) were exported in terms of decay corrected activity per unit volume at specified time points with gradually increasing intervals. The TACs were expressed as percent injected dose per unit volume for analysis.

[3] = biological target: HDAC3 (Homo sapiens (Human), UniProt O15379); assay: HDAC inhibition assay; details: read-out: IC50 HDAC3
Experimental: (§3) All histone deacetylases were purchased from BPS Bioscience. […] All the other reagents were purchased from Sigma-Aldrich. Caliper EZ reader II system was used to collect all data. […] Purified HDACs were incubated with 2 μM carboxyfluorescein (FAM)-labeled acetylated or trifluoroacetylated peptide substrate (Broad Substrate A and B respectively) and test compound for 60 minutes at room temperature, in HDAC assay buffer that contained 50 mM HEPES (pH 7.4), 100 mM KCl, 0.01% BSA and 0.001% Tween-20. […] Substrate and product were separated electrophoretically and fluorescence intensity in the substrate and product peaks was determined and analyzed by Labchip EZ Reader. The reactions were performed in duplicate for each sample. IC50 values were automatically calculated by Origin 8 using 4 Parameter Logistic Model. The percent inhibition was plotted against the compound concentration, and the IC50 value was determined from the logistic dose-response curve fitting by Origin 8.0 software.

[4] = biological target: HDAC1 (Homo sapiens (Human), UniProt Q13547); assay: HDAC inhibition assay; details: read-out: IC50 HDAC1
Experimental: as §3

[5] = biological target: HDAC9 (Homo sapiens (Human), UniProt Q9UKV0); assay: HDAC inhibition assay; details: read-out: IC50 HDAC9
Experimental: as §3

[6] = biological target: HDAC6 (Homo sapiens (Human), UniProt Q9UBN7); assay: HDAC inhibition assay; format: biochemical
Text: as §1

[7] = biological target: HDAC8 (Homo sapiens (Human), UniProt Q9BY41); assay: HDAC inhibition assay; format: biochemical
Text: as §1

[8] = tested on: histone deacetylases; assay: Baboon PET/MR imaging with [11C]CN133; format: in vivo, baboon (Papio anubis); details: for changes in vital signs: tracer dose or blocking dose; for blocking of [11C]CN133 uptake in baboon peripheral organs (time-activity curves): heart, spleen, pancreas, CN133 0.5 mg/kg 10-minute pre-treatment, SAHA infusion 5 mg/kg; for VT (Ichese MAI), Baseline / VT (Logan Plot), Baseline: [11C]CN133 distribution volume, t*=35 min to 80 min
Experimental: A female Papio Anubis baboon, deprived of food for 12 hours prior to the study, was administered intramuscular ketamine (10 mg/kg) and intubated. For maintenance of anesthesia throughout the study, the baboon was provided 1%-4% isoflurane (Forane) in a mixture of medical oxygen and nitrogen. The baboon was catheterized antecubitally for radiotracer injection and a radial arterial line was placed for metabolite analysis. MR-PET images were acquired in a BiographmMR scanner (Siemens, Munich, Germany), and PET compatible 8-channel coil arrays for non-human primate brain imaging with a PET resolution of 5 mm and field of view of 59.4 cm and 25.8 cm (transaxial and axial, respectively). Dynamic PET image acquisition was initiated followed by administration of the radiotracer in a homogenous solution of 10% ethanol and 90% isotonic saline. An […] sequence began after 30 minutes of the baseline scan for anatomic coregistration. […] Both scans were carried out in the same animal on the same day, separated by 2.5 hours. In both scans, 4-5 mCi of [^11C]CN133 was administered to the baboon. Dynamic data from the PET scans were recorded in list mode and corrected for attenuation. Baboon data were reconstructed using a 3D-OSEM method resulting in a full width at half-maximum resolution of 4 mm.
as §2, with “MR” for “CT”, “4 mm. A common VOI mask was applied” for “1 mm”, “both baboon scans.” for “minimize partial volume effects.”
Arterial samples collected during imaging from the baboon were centrifuged to obtain plasma, which was then removed and placed in an automated gamma counter that was calibrated to the PET scanner. Metabolite analysis was conducted on a custom automated robot fitted with Phenomenex SPE Strata-X 500 mg solid phase extraction cartridges that were primed with ethanol (2 mL) and deionized water (20 mL). Protein precipitation was achieved by addition of plasma (300 μL) to acetonitrile (300 μL), which was centrifuged for 1 minute to obtain protein-free plasma (PFP). 300 μL of PFP/acetonitrile solution was diluted into deionized water (3 mL), loaded onto the C18 cartridge, and removed of polar metabolites with 100% water. Next, a series of extractions were performed using water and acetonitrile in quantities: 95:5, 90:10, 85:15, 80:20, 70:30, 60:40, 30:70 and 100% acetonitrile at a volume of 4 mL. A control experiment was performed before metabolite analysis to determine the retention of the parent compound by injection of a small amount of [^11C]CN133 onto a test series of extraction cartridges. Each sample was counted in a WIZARD2 Automatic Gamma Counter to determine the presence of radiolabeled metabolites.
CN147 blocks ˜40% of [^11C]CN133 binding in NHP whole brain and in cerebellum. Plasma-normalized data were evaluated by volume of interest analysis (VOI) at the whole brain level and at level of the cerebellum. VOI data were then applied to distribution volume (VT) data analysis by two graphical methods using PMOD software, tabulated in Tables A and B below. Logan Plot and Ichese MAI methods were clarified from previous NHP imaging analyses to provide an accurate VT estimate (+/− standard error) from data beginning 35 min after injection of radiotracer (t*=35 min) until the end of the scan (t=80min).

[9] = biological target: HDAC7 (Homo sapiens (Human), UniProt Q8WUI4); assay: HDAC inhibition assay; details: read-out: IC50 HDAC7
Experimental: as §3

[10] = biological target: HDAC5 (Homo sapiens (Human), UniProt Q9UQL6); assay: HDAC inhibition assay; details: read-out: IC50 HDAC5
Experimental: as §3

[11] = Log D determination; format: physicochemical; details: octanol / phosphate buffer pH 7.4
Experimental: An aliquot (˜50 μL) of the formulated radiotracer was added to a test tube containing 2.5 mL of octanol and 2.5 mL of phosphate buffer solution (pH 7.4). The test tube was mixed by vortex for 2 minutes and then centrifuged for 2 minutes to fully separate the aqueous and organic phase. A sample taken from the octanol layer (0.1 mL) and the aqueous layer (1.0 mL) was saved for radioactivity measurement. An additional aliquot of the octanol layer (2.0 mL) was carefully transferred to a new test tube containing 0.5 mL of octanol and 2.5 mL of phosphate buffer solution (pH 7.4). The previous procedure (vortex mixing, centrifugation, sampling, and transfer to the next test tube) was repeated until six sets of aliquot samples had been prepared. The radioactivity of each sample was measured in a well counter (Perkin-Elmer, Waltham, Mass.). The log D of each set of samples was derived by the following equation: log D=log (decay-corrected radioactivity in octanol sample×10/decay-corrected radioactivity in phosphate buffer sample).

[12] = biological target: HDAC1 through HDAC9; assay: HDAC inhibition assay, isoform panel; format: biochemical; details: for IC50 / binding towards HDAC isoforms (in words): HDAC1, HDAC2, HDAC3 and HDAC6
Text: as §1

[13] = Off target binding assays; details: at 100 times its HDAC IC50
[14] = tested on: cell cultures; assay: Efficacy in cell cultures; format: cell-based
[15] = biological target: HDAC4 (Homo sapiens (Human), UniProt P56524); assay: HDAC inhibition assay; details: read-out: IC50 HDAC4
Experimental: as §3

[16] = Plasma protein binding assay, baboon plasma; format: in vitro ADME; details: method derives % unbound, read-out: plasma protein binding (PPB) (converted)
Experimental: An aliquot of radiotracer in saline (10 μL) was added to a sample of baboon plasma (0.8 mL, pooled from two separate animals). The mixture was gently mixed by repeated inversion and incubated for 10 minutes at room temperature. Following incubation a small sample (20 μL) was removed to determine the total radioactivity in the plasma sample (AT; AT=Abound+Aunbound). An additional 0.2 mL of the plasma sample was placed in the upper compartment of a Centrifree tube (Amicon, Inc., Beverly, Mass., USA) and then centrifuged for 10 minutes. The upper part of the Centrifree tube was discarded, and an aliquot (20 μL) from the bottom part of the tube was removed to determine the amount of radioactivity that passed through the membrane (Aunbound). Plasma protein binding was derived by the following equation: % unbound=Aunbound×100/AT.

[17] = Plasma protein binding assay, human plasma; format: in vitro ADME; details: method derives % unbound, read-out: plasma protein binding (PPB) (converted)

Chain of HDAC1 (Q13547 whole entry): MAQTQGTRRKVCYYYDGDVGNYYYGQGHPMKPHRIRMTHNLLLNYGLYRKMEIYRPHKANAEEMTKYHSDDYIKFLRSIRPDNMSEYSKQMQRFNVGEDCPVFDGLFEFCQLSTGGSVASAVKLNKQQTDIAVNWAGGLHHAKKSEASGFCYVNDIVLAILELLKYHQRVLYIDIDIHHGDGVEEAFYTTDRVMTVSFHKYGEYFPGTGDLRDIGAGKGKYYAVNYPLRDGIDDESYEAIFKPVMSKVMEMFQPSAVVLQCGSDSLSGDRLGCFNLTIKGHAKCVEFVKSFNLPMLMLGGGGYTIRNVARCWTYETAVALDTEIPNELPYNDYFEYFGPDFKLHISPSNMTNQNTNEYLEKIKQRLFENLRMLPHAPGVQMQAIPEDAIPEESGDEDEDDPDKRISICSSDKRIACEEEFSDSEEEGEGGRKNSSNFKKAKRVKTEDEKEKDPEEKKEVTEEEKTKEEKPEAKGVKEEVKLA
Chain of HDAC3 (O15379 whole entry): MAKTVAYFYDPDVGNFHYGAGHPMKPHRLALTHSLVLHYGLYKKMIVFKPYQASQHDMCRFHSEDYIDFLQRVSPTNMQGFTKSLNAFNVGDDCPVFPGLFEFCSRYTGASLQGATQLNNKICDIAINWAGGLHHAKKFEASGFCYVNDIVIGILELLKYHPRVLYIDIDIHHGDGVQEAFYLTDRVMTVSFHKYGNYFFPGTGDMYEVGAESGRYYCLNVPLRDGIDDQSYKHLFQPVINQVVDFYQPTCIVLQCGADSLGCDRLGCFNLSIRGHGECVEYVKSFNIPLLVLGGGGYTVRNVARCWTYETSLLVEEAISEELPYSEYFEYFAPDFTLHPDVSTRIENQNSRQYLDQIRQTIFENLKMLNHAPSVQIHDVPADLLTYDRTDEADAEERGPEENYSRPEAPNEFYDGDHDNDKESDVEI
Chain of HDAC3 (Q9Y618 395-489 partner): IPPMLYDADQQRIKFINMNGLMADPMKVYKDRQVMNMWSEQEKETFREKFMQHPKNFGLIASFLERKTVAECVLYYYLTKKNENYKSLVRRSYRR
Chain of HDAC8 (Q9BY41 whole entry): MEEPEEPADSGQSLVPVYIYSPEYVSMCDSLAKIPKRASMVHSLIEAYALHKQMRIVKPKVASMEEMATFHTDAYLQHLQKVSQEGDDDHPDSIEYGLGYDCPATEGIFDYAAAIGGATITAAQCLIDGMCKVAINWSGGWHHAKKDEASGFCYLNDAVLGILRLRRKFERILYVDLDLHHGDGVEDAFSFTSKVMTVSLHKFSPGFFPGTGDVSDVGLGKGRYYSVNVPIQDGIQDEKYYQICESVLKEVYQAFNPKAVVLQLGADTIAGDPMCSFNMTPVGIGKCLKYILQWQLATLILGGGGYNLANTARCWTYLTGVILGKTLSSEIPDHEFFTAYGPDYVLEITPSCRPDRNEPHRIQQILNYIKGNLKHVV
Chain of HDAC9 (Q9UKV0 whole entry): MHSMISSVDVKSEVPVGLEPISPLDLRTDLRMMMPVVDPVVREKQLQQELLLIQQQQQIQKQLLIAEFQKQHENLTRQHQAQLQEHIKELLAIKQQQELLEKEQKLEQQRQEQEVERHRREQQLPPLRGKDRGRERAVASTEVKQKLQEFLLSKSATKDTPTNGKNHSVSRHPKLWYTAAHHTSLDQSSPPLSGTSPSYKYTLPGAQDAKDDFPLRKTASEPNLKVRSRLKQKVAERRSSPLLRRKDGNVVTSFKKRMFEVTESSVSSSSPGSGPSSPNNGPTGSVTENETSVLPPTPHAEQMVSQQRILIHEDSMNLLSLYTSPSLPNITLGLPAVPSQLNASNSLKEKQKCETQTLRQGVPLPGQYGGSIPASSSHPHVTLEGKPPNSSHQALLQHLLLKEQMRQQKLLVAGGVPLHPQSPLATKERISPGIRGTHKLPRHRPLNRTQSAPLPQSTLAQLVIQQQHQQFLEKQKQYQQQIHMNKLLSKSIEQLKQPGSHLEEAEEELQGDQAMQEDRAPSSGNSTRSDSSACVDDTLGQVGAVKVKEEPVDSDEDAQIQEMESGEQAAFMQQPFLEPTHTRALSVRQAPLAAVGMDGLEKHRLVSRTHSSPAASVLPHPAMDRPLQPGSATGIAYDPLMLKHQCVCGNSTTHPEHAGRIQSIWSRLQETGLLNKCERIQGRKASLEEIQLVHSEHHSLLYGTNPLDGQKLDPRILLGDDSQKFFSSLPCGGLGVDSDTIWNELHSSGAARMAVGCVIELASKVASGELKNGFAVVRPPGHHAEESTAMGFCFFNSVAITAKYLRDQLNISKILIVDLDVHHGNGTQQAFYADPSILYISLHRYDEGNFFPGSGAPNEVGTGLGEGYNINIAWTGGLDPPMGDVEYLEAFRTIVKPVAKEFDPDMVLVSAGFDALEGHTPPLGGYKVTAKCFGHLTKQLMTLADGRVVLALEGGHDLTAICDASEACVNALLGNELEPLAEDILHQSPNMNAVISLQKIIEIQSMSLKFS
Chain of HDAC2 (Q92769 whole entry): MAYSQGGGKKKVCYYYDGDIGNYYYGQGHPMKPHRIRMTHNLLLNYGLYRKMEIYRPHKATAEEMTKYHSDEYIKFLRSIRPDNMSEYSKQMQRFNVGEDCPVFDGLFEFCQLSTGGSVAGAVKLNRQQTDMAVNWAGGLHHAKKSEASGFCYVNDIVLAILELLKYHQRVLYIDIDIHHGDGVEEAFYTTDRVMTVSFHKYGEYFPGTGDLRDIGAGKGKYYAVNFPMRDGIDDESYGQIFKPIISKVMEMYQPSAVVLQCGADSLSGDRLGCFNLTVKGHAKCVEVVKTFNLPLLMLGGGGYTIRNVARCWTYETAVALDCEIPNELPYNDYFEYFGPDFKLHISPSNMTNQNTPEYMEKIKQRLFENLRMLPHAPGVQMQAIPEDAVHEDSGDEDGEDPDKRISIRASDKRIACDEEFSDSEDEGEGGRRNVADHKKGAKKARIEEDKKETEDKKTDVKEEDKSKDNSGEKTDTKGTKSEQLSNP
Chain of HDAC4 (P56524 whole entry): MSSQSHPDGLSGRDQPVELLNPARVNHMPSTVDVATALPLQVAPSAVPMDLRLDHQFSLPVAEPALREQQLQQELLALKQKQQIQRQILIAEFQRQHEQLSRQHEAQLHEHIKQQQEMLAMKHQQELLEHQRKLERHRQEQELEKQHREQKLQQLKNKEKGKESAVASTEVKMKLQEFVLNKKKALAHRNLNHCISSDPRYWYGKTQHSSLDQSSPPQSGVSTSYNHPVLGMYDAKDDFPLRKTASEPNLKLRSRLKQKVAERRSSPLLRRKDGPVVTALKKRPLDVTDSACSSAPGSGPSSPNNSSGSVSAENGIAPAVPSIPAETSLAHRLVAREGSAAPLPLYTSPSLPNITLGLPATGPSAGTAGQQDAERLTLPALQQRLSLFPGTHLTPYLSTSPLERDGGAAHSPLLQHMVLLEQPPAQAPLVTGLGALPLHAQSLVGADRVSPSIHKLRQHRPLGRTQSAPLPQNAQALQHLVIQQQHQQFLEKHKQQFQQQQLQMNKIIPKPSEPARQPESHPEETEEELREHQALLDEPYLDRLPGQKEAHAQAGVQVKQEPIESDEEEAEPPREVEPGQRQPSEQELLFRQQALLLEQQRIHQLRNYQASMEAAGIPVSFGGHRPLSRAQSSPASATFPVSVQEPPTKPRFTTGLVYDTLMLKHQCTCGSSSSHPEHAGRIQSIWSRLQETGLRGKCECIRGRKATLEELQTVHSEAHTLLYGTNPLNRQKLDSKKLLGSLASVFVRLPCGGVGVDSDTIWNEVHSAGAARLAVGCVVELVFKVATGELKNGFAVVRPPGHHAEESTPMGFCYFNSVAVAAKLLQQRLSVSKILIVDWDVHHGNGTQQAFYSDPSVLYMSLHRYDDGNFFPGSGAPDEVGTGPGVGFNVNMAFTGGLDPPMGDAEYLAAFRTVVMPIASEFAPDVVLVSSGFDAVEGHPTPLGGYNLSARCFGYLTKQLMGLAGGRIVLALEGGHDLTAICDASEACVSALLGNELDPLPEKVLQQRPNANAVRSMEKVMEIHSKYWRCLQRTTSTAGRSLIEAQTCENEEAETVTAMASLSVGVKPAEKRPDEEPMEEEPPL
Chain of HDAC7 (Q8WUI4 whole entry): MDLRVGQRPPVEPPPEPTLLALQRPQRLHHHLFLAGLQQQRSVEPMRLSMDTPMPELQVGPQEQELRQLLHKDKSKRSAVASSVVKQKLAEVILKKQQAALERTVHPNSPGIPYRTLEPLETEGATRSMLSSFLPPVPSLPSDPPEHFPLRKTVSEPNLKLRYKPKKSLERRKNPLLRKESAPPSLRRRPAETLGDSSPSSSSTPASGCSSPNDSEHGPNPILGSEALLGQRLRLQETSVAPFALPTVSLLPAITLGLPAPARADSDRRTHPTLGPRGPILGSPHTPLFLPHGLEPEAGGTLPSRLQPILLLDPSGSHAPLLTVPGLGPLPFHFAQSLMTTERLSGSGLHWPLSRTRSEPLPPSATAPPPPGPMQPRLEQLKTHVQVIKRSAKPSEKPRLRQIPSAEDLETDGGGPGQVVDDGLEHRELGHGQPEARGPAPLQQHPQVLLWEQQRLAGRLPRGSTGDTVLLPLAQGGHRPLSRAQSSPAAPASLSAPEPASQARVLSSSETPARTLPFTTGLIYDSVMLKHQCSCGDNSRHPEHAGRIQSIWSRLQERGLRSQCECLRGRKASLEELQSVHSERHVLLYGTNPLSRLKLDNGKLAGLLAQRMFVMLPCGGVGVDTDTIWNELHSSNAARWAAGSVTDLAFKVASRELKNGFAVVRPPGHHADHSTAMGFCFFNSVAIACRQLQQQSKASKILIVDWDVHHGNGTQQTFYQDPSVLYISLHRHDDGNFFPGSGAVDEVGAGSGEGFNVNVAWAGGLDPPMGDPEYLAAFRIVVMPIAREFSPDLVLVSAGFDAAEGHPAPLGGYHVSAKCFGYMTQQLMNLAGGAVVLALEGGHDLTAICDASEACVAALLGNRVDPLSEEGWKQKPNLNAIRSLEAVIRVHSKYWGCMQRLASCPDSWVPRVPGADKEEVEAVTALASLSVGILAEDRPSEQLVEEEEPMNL

IC50 [1]: 53.7 nM
IC50 [3]: 7.1 nM
IC50 [4]: 56.1 nM
SMILES: O=C(NO)c1ccc(C2=Nc3ccccc3Oc3ccccc32)cc1 [CN54]
[11C]CN133 uptake in peripheral organs/regions of rats after treatment [2]: decreased uptake
blocking of [11C]CN133 uptake in rat brain after pretreatment [2]: blocked; also recorded: activity blocking

SMILES: CN(Cc1ccc(/C=C/C(=O)NO)cc1)CC12CC3CC(CC(C3)C1)C2 [CN133, (E)-3-(4-((((3r,5r,7r)-adamantan-1-ylmethyl)(methyl)amino)methyl)phenyl)-N-hydroxyacrylamide]
IC50 [5]: > 15000 nM
IC50 [6]: 4.1 nM
IC50 [7]: > 15000 nM
changes in vital signs ([8]; baboon): did not notice any significant changes
blocking of [11C]CN133 uptake in baboon peripheral organs (time-activity curves) ([8]; kidney): significant blocking
blocking of [11C]CN133 uptake in baboon brain ([8]; intravenous, CN133 0.01-1.0 mg/kg, CN147 0.5 mg/kg): reduced the regional radioactivity uptake
IC50 [9]: > 20000 nM
P-glycoprotein interaction (CsA pretreatment study) ([2]; 30-minute pretreatment of CsA 25 mg/kg): not a Pgp inhibitor
reversibility of binding ([2]; CN133 1.0 mg/kg i.v. 20 minutes into baseline scan with [11C]CN133): reversible inhibitor; also recorded: rapid washout of radioactivity from brain regions
[11C]CN133 uptake in peripheral organs/regions of rats after treatment [2]: decreased
IC50 [10]: 352 nM
partition coefficient (Log D) [11]: 2.03
IC50 [3]: 0.6 nM
IC50 [4]: 0.3 nM
IC50 / binding towards HDAC isoforms (in words) [12]: low nanomolar; also recorded: sub-nanomolar
selectivity over each of the other HDAC isoforms ([12]; HDAC1-3 and HDAC6 versus other isoforms): greater than 100 fold
off target binding [13]: minimal (if any) off target binding
efficacy in cell cultures [14]: sub-nanomolar
IC50 [15]: 1970 nM

SMILES: O=C(CCCCCCC(=O)Nc1ccccc1)NO [SAHA, suberanilohydroxamic acid, reference compound]
blocking of [11C]CN133 uptake in baboon peripheral organs (time-activity curves) ([8]; kidney): significant blocking
[11C]CN133 uptake in peripheral organs/regions of rats after treatment [2]: decreased uptake
blocking of [11C]CN133 uptake in rat brain after pretreatment [2]: no significant change; also recorded: did not block the brain uptake

VT (Ichese MAI), Baseline ([8]; Cerebellum VOI): 19.45 ± 7.5
VT (Logan Plot), Baseline ([8]; Cerebellum VOI): 19.28 ± 3.18
VT (Ichese MAI), Baseline ([8]; Whole Brain VOI): 14.65 ± 8.48
VT (Logan Plot), Baseline ([8]; Whole Brain VOI): 14.46 ± 3.83
time of peak radioactivity in the brain after injection ([8]; baboon): about 1 minute
tracer uptake in peripheral organs ([8]; baboon heart, kidney, pancreas and spleen): good uptake
fraction unbound at 10 min [16]: 0.986
BBB penetration ([2]; rats, intravenous, 60 minutes scan): high BBB penetration
logD ([11]; read-out: partition coefficient (Log D)): 2.03
IC50 / binding towards HDAC isoforms (in words) [12]: sub-nanomolar
fraction unbound at 10 min [17]: 0.945
SMILES: [11CH3]N(Cc1ccc(/C=C/C(=O)NO)cc1)CC12CC3CCC(CC(C3)C1)C2 [[11C]CN133]
changes in vital signs ([8]; baboon): did not notice any significant changes
blocking of [11C]CN133 uptake in rat brain after pretreatment [2]: dose-dependent blocking

From US10188756B2, “Imaging histone deacetylases with a radiotracer using positron emission tomography” (THE GENERAL HOSPITAL CORPORATION, priority 2013, dated 2019)
